This test has as its target T1, human V1a receptor (Homo sapiens, UniProt P37288).
T1 construct: expressed in transfected cells; host or cells: HEK293 cells, transiently transfected; cell membranes
Briefly: human V1a receptor binding studies (3H-Vasopressin, SPA beads). The note with it: membranes of HEK293 cells transiently transfected with human V1a receptor, Ki by Cheng-Prussoff from IC50, read-out: pKi hV1a (converted). On the procedure:
The human V1a receptor was cloned by RT-PCR from total human liver RNA. The coding sequence was subcloned in an expression vector after sequencing to confirm the identity of the amplified sequence. […] Cell membranes were prepared from HEK293 cells transiently transfected with the expression vector and grown in 20 liter fermenters with the following protocol.
50 g of cells are re-suspended in 30 ml freshly prepared ice cold Lysis buffer (50 mM HEPES, 1 mM EDTA, 10 mM MgCl2 adjusted to pH=7.4+complete cocktail of protease inhibitor (Roche Diagnostics)). Homogenized with Polytron for 1 min and sonicated on ice for 2×2 minutes at 80% intensity (Vibracell sonicator). The preparation is centrifuged 20 min at 500 g at 4° C., the pellet is discarded and the supernatant centrifuged 1 hour at 43′000 g at 4° C. (19′000 rpm). The pellet is re-suspended in 12.5 ml Lysis buffer+12.5 ml Sucrose 20% and homogenized using a Polytron for 1-2 min. The protein concentration is determined by the Bradford method and aliquots are stored at −80° C. until use. For binding studies 60 mg Yttrium silicate SPA beads (Amersham) are mixed with an aliquot of membrane in binding buffer (50 mM Tris, 120 mM NaCl, 5 mM KCl, 2 mM CaCl2, 10 mM MgCl2) for 15 minutes with mixing. 50 μl of bead/membrane mixture is then added to each well of a 96 well plate, followed by 50 μl of 4 nM 3H-Vasopressin (American Radiolabeled Chemicals). For total binding measurement 100 μl of binding buffer are added to the respective wells, for non-specific binding 100 μl of […] cold vasopressin and for compound testing 100 μl of a serial dilution of each compound in 2% DMSO. The plate is incubated 1 h at room temperature, centrifuged 1 min at 1000 g and counted on a Packard Top-Count. Non-specific binding counts are subtracted from each well and data is normalized to the maximum specific binding set at 100%. To calculate an IC 50 the curve is fitted using a non-linear regression model (XLfit) and the Ki is calculated using the Cheng-Prussoff equation.

The results in this text go back to patent US9828385B2, “Spiro-oxazolones” (Hoffmann-La Roche Inc., priority 2014, dated 2017).

T1 sequence (P37288 whole entry): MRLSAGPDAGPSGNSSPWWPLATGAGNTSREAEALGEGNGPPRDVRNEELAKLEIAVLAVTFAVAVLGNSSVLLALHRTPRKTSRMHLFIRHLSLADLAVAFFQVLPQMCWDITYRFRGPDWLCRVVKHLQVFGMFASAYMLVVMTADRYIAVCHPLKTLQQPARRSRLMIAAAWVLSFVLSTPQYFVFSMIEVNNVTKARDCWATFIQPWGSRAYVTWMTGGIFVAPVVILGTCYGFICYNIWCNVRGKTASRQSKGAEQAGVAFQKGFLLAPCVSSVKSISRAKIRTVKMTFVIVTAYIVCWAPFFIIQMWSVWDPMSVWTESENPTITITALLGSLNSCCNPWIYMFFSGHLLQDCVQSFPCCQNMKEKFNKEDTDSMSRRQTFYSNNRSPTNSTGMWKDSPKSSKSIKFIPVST

Turning to `CCCCC1(C)OC(N2CCC3(CC2)OCc2ccccc23)=NC1=O` (single isomer, unassigned; (+)) [Example 67, (+)-5-Butyl-5-methyl-2-(1′H,3H-spiro[2-benzofuran-1,4′-piperidin]-1′-yl)-1,3-oxazol-4(5H)-one], the Ki was 25.1 nM.

For `C=CCC1(CC(=C)C(F)(F)F)OC(N2CCC3(CC2)OCc2ccccc23)=NC1=O` (stereo not shown) [Example 60, 5-(Prop-2-en-1-yl)-2-(1′H,3H-spiro[2-benzofuran-1,4′-piperidin]-1′-yl)-5-[2-(trifluoromethyl)prop-2-en-1-yl]-1,3-oxazol-4(5H)-one], the Ki is 25.1 nM.

In the case of `O=C1N=C(N2CCC3(CC2)OCc2ccccc23)O[C@]12C[C@H]1CC(F)(F)C[C@H]1C2` [Example 146, 5′,5′-Difluoro-2-(1′H,3H-spiro[2-benzofuran-1,4′-piperidin]-1′-yl)-3′,3a′,4′,5′,6′,6a′-hexahydro-1′H,4H-spiro[1,3-oxazole-5,2′-pentalen]-4-one], the Ki was 3.98 nM.

Consider `CC1(CC2CCCCC2)OC(N2CCC3(CC2)OCc2ccccc23)=NC1=O` (stereo not shown) [Example 79, 5-(Cyclohexylmethyl)-5-methyl-2-(1′H,3H-spiro[2-benzofuran-1,4′-piperidin]-1′-yl)-1,3-oxazol-4(5H)-one], for which the Ki is 20 nM.

For the molecule `CC1(CC2CCCOC2)OC(N2CCC3(CC2)OCc2ccccc23)=NC1=O` (single isomer, unassigned; diastereomer a) [Example 102, (+)-5-Methyl-2-(1′H,3H-spiro[2-benzofuran-1,4′-piperidin]-1′-yl)-5-(tetrahydro-2H-pyran-3-ylmethyl)-1,3-oxazol-4(5H)-one diastereomer a], the Ki is 20 nM.

As for `O=C1OC2(CCN(C3=NC(=O)C(C(O)c4ccc(Cl)cc4)O3)CC2)c2ccccc21` (single isomer, unassigned) [Example 52, 1′-{-5-[(4-Chlorophenyl)(hydroxy)methyl]-4-oxo-4,5-dihydro-1,3-oxazol-2-yl}-3H-spiro[2-benzofuran-1,4′-piperidin]-3-one diastereomer b, enantiomer A], the Ki was 631 nM.

In the case of `C=CCC1(CC(=C)C(=O)OCC)OC(N2CCC3(CC2)OCc2ccccc23)=NC1=O` (stereo not shown) [Example 61, Ethyl 2-{[4-oxo-5-(prop-2-en-1-yl)-2-(1′H,3H-spiro[2-benzofuran-1,4′-piperidin]-1′-yl)-4,5-dihydro-1,3-oxazol-5-yl]methyl}prop-2-enoate], the Ki was 794 nM.

In the case of `COc1ccc2c(c1)C(=O)OC21CCN(C2=NC(=O)C(Cc3ccccc3)O2)CC1` (stereo not shown) [Example 31, 1′-(5-Benzyl-4-oxo-4,5-dihydro-1,3-oxazol-2-yl)-5-methoxy-3H-spiro[2-benzofuran-1,4′-piperidin]-3-one], the Ki was 100 nM.

With `C#CCC1(CC=C)OC(N2CCC3(CC2)OCc2ccccc23)=NC1=O` (stereo not shown) [Example 57, 5-(Prop-2-en-1-yl)-5-(prop-2-yn-1-yl)-2-(1′H,3H-spiro[2-benzofuran-1,4′-piperidin]-1′-yl)-1,3-oxazol-4(5H)-one], the Ki is 39.8 nM.

On to `CC1(Cc2ccccc2)OC(N2CCC3(CC2)OCc2ccccc23)=NC1=O` (single isomer, unassigned; (-)) [Example 71, (−)-5-Benzyl-5-methyl-2-(1′H,3H-spiro[2-benzofuran-1,4′-piperidin]-1′-yl)-1,3-oxazol-4(5H)-one], for which the Ki was 79.4 nM.

Consider `O=C1OC2(CCN(C3=NC(=O)C(Cc4ccccc4)O3)CC2)c2ccccc21` (single isomer, unassigned; enantiomer a) [Example 20, 1′-[5-Benzyl-4-oxo-4,5-dihydro-1,3-oxazol-2-yl]-3H-spiro[2-benzofuran-1,4′-piperidin]-3-one enantiomer A], for which the Ki is 251 nM.

Turning to `CC1(C(F)(F)c2ccc(C(F)F)cc2)OC(N2CCC3(CC2)OCc2ccccc23)=NC1=O` (stereo not shown) [Example 89, 5-{[4-(Difluoromethyl)phenyl](difluoro)methyl}-5-methyl-2-(1′H,3H-spiro[2-benzofuran-1,4′-piperidin]-1′-yl)-1,3-oxazol-4(5H)-one], the Ki is 158 nM.

Consider `CC(=O)OC(c1ccc(Cl)cc1)C1OC(N2CCC3(CC2)OCc2ccccc23)=NC1=O` (stereo not shown) [Example 41, (4-Chlorophenyl)[4-oxo-2-(1′H,3H-spiro[2-benzofuran-1,4′-piperidin]-1′-yl)-4,5-dihydro-1,3-oxazol-5-yl]methyl acetate], for which the Ki is 31.6 nM.

For `O=C1N=C(N2CCC3(CC2)OCc2ccccc23)OC1Cc1ccc(Cl)cc1` (stereo not shown) [Example 35, 5-(4-Chlorobenzyl)-2-(1′H,3H-spiro[2-benzofuran-1,4′-piperidin]-1′-yl)-1,3-oxazol-4(5H)-one], the Ki is 2 nM.

Turning to `O=C1N=C(N2CCC3(CC2)c2ccccc2CS3(=O)=O)OC1Cc1ccccc1` (stereo not shown) [Example 34, 5-Benzyl-2-(2,2-dioxido-1′H,3H-spiro[2-benzothiophene-1,4′-piperidin]-1′-yl)-1,3-oxazol-4(5H)-one], the Ki was 10 nM.

`CC1(Cc2c(F)c(F)c(F)c(F)c2F)OC(N2CCC3(CC2)OCc2ccccc23)=NC1=O` (stereo not shown) [Example 88, 5-Methyl-5-(pentafluorobenzyl)-2-(1′H,3H-spiro[2-benzofuran-1,4′-piperidin]-1′-yl)-1,3-oxazol-4(5H)-one]: the Ki was 79.4 nM.

Turning to `O=C1N=C(N2CCC3(CC2)OCc2ccccc23)OC1C(O)c1ccccc1` (single isomer, unassigned) [Example 36, 5-(Hydroxy(phenyl)methyl)-2-(1′H,3H-spiro[2-benzofuran-1,4′-piperidin]-1′-yl)-1,3-oxazol-4(5H)-one diastereomer a, enantiomer A], the Ki was 31.6 nM.

Turning to `CC1(CC2CCCC2)OC(N2CCC3(CC2)OCc2ccccc23)=NC1=O` (single isomer, unassigned; (+)) [Example 77, (+)-5-(Cyclopentylmethyl)-5-methyl-2-(1′H,3H-spiro[2-benzofuran-1,4′-piperidin]-1′-yl)-1,3-oxazol-4(5H)-one], the Ki was 2.51 nM.

On to `CC(=O)O[C@H]1CC2(C[C@H]1OC(C)=O)OC(N1CCC3(CC1)OCc1ccccc13)=NC2=O` (single isomer, unassigned; diastereomer a) [Example 120, 4-Oxo-2-(1′H,3H-spiro[2-benzofuran-1,4′-piperidin]-1′-yl)-1-oxa-3-azaspiro[4.4]non-2-ene-7,8-diyl diacetate diastereomer a], for which the Ki was 200 nM.

Consider `CC(c1ccccc1)C1(C)OC(N2CCC3(CC2)OCc2ccccc23)=NC1=O` (single isomer, unassigned; diastereomer a) [Example 108, (+)-5-Methyl-5-(1-phenylethyl)-2-(1′H,3H-spiro[2-benzofuran-1,4′-piperidin]-1′-yl)-1,3-oxazol-4(5H)-one diastereomer a], for which the Ki was 12.6 nM.

Take `CC#CCC1(CC#CC)OC(N2CCC3(CC2)OCc2ccccc23)=NC1=O` [Example 55, 5,5-Di(but-2-ynyl)-2-(3H-spiro[isobenzofuran-1,4′-piperidine]-1′-yl)oxazol-4(5H)-one]: the Ki is 5.01 nM.

With `O=C1N=C(N2CCC3(CC2)OCc2ccccc23)O[C@]12C[C@H]1CCCC[C@H]1C2` [Example 141, 2′-(1′H,3H-Spiro[2-benzofuran-1,4′-piperidin]-1′-yl)-1,3,3a,4,5,6,7,7a-octahydro-4′H-spiro[indene-2,5′-[1,3]oxazol]-4′-one], the Ki was 0.501 nM.
